Laboratory results from PubChem BioAssay (NCI).
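Compound exposure: 48 hours, 5 concentrations, 96-well plates. GI50 = concentration required for 50% inhibition of growth. TGI: total growth inhibition.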

Tests used:
Assay in all cases: DTP human tumour cell line panel, 48 h
[1] = system: IGROV1 ovarian
[2] = system: A498 renal
[3] = system: U251 CNS
[4] = system: NCI-H226 lung
[5] = system: NCI/ADR-RES ovarian
[6] = system: HOP-92 NSCLC
[7] = system: HCC-2998 colon
[8] = system: RXF 393 renal
[9] = system: CAKI-1 renal
[10] = system: SK-MEL-28 melanoma
[11] = system: NCI-H23 lung
[12] = system: UACC-257 melanoma
[13] = system: A549 NSCLC
[14] = system: SK-OV-3 ovarian
[15] = system: DU-145 prostate
[16] = system: SK-MEL-2 melanoma
[17] = system: PC-3 prostate
[18] = system: HCT-116 colon
[19] = system: HL-60(TB) leukemia
[20] = system: T-47D breast
[21] = system: K-562 leukemia
[22] = system: UO-31 renal
[23] = system: MDA-MB-435
[24] = system: MDA-MB-231 breast
[25] = system: OVCAR-3 ovarian
[26] = system: SR leukemia
[27] = system: NCI-H460 lung
[28] = system: SN12C renal
[29] = system: SNB-19 CNS
[30] = system: BT-549 breast
[31] = system: HS 578T breast
[32] = system: HOP-62 NSCLC
[33] = system: MDA-MB-468 breast
[34] = system: MOLT-4 leukemia
[35] = system: ACHN renal
[36] = system: COLO 205 colon
[37] = system: SK-MEL-5 melanoma
[38] = system: CCRF-CEM leukemia
[39] = system: LOX IMVI melanoma
[40] = system: SF-295 CNS
[41] = system: KM12 colon
[42] = system: EKVX NSCLC
[43] = system: MALME-3M melanoma
[44] = system: OVCAR-5 ovarian
[45] = system: UACC-62 melanoma
[46] = system: SW-620 colon
[47] = system: SF-539 CNS
[48] = system: M14 melanoma
[49] = system: 786-0 renal
[50] = system: SF-268 CNS
[51] = system: HCT-15 colon
[52] = system: MCF7 breast
[53] = system: HT29 colon
[54] = system: OVCAR-8 ovarian
[55] = system: TK-10 renal
[56] = system: SNB-75 CNS
[57] = system: RPMI-8226 leukemia
[58] = system: NCI-H522 lung

Work on `O=C(CS(=O)(=O)c1oc(-c2ccc(Cl)cc2)nc1S(=O)(=O)c1ccccc1)N1CCCC1` yielded a GI50 [1] of 13.1 µM, a TGI [1] of 29.3 µM and a GI50 [2] of 14.2 µM. It also gave a TGI [2] of 27.3 µM, a GI50 [3] of 15.9 µM and a TGI [3] of 29.8 µM. The GI50 [4] was 15.1 µM, the TGI [4] was 39 µM and the GI50 [5] was 15.9 µM. It also gave a TGI [5] of 70.5 µM, a GI50 [6] of 2.38 µM and a TGI [6] of 4.68 µM. For the same compound, the GI50 [7] was 14.5 µM, the TGI [7] was 28.7 µM and the GI50 [8] was 1.36 µM. For the same compound, the TGI [8] was 2.79 µM, the GI50 [9] was 1.41 µM and the TGI [9] was 2.75 µM. For the same compound, the GI50 [10] was 3.58 µM, the TGI [10] was 12.5 µM and the GI50 [11] was 11.4 µM. It also gave a TGI [11] of 26.8 µM, a GI50 [12] of 1.88 µM and a TGI [12] of 3.62 µM. For the same compound, the GI50 [13] was 14.3 µM, the TGI [13] was 31.6 µM and the GI50 [14] was 18 µM. The TGI [14] was 33 µM, the GI50 [15] was 1.76 µM and the TGI [15] was 3.37 µM. The GI50 [16] was 15 µM, the TGI [16] was 29 µM and the GI50 [17] was 9.59 µM. The TGI [17] was 27.5 µM, the GI50 [18] was 1.81 µM and the TGI [18] was 4.07 µM. It also gave a GI50 [19] of 1.31 µM, a TGI [19] greater than 100 µM and a GI50 [20] of 1.8 µM. For the same compound, the TGI [20] was 4.47 µM, the GI50 [21] was 0.707 µM and the TGI [21] was greater than 100 µM. The GI50 [22] was 1.54 µM, the TGI [22] was 2.96 µM and the GI50 [23] was 2.88 µM. It also gave a TGI [23] of 13.6 µM, a GI50 [24] of 1.71 µM and a TGI [24] of 3.1 µM. The GI50 [25] was 1.29 µM, the TGI [25] was 2.71 µM and the GI50 [26] was 2.6 µM. It also gave a TGI [26] greater than 100 µM, a GI50 [27] of 12.3 µM and a TGI [27] of 26.3 µM. It also gave a GI50 [28] of 12 µM, a TGI [28] of 24.9 µM and a GI50 [29] of 16 µM. For the same compound, the TGI [29] was 30.5 µM, the GI50 [30] was 1.88 µM and the TGI [30] was 3.48 µM. For the same compound, the GI50 [31] was 7.21 µM, the TGI [31] was 53.9 µM and the GI50 [32] was 17.8 µM. For the same compound, the TGI [32] was 34 µM, the GI50 [33] was 1.08 µM and the TGI [33] was 2.49 µM. The GI50 [34] was 2.38 µM, the TGI [34] was greater than 100 µM and the GI50 [35] was 1.52 µM. The TGI [35] was 2.85 µM, the GI50 [36] was 2.14 µM and the TGI [36] was 4.68 µM. The GI50 [37] was 14.3 µM, the TGI [37] was 27.6 µM and the GI50 [38] was 0.4 µM. The TGI [38] was 2.36 µM, the GI50 [39] was 1.49 µM and the TGI [39] was 2.86 µM. The GI50 [40] was 13.4 µM, the TGI [40] was 26.8 µM and the GI50 [41] was 16.8 µM. The TGI [41] was 33 µM, the GI50 [42] was 2.03 µM and the TGI [42] was 4.9 µM. For the same compound, the GI50 [43] was 1.69 µM, the TGI [43] was 3.09 µM and the GI50 [44] was 13.7 µM. For the same compound, the TGI [44] was 27.4 µM, the GI50 [45] was 3.35 µM and the TGI [45] was 13.6 µM. For the same compound, the GI50 [46] was 1.06 µM, the TGI [46] was 2.41 µM and the GI50 [47] was 1.64 µM. The TGI [47] was 2.99 µM, the GI50 [48] was 1.88 µM and the TGI [48] was 4.07 µM. For the same compound, the GI50 [49] was 1.51 µM, the TGI [49] was 3.01 µM and the GI50 [50] was 14.9 µM. It also gave a TGI [50] of 43.2 µM, a GI50 [51] of 1.43 µM and a TGI [51] of 2.99 µM. It also gave a GI50 [52] of 1.47 µM, a TGI [52] of 3.34 µM and a GI50 [53] of 2.07 µM. For the same compound, the TGI [53] was 5.07 µM, the GI50 [54] was 11.2 µM and the TGI [54] was 33.2 µM. For the same compound, the GI50 [55] was 1.75 µM, the TGI [55] was 3.19 µM and the GI50 [56] was 10.1 µM. It also gave a TGI [56] of 23 µM, a GI50 [57] of 2.99 µM and a TGI [57] greater than 100 µM. For the same compound, the GI50 [58] was 1.11 µM and the TGI [58] was 2.53 µM.
